Measurements as given in ChEMBL document CHEMBL2417389, “Synthesis and optimization of novel (3S,5R)-5-(2,2-dimethyl-5-oxo-4-phenylpiperazin-1-yl)piperidine-3-carboxamides as orally active renin inhibitors” (Bioorg Med Chem, 2013).
Positions count from the first letter of the chain named. The source made the active and inactive calls. The rule behind the calls is not given here.

What was measured:
[1] = target: T1, Renin (Macaca fascicularis) (UniProt Q6DLS0); assay: Ratio of compound IC50 to Aliskiren hemifumarate IC50 for cynomolgus monkey plasma renin
T1 sequence (whole entry): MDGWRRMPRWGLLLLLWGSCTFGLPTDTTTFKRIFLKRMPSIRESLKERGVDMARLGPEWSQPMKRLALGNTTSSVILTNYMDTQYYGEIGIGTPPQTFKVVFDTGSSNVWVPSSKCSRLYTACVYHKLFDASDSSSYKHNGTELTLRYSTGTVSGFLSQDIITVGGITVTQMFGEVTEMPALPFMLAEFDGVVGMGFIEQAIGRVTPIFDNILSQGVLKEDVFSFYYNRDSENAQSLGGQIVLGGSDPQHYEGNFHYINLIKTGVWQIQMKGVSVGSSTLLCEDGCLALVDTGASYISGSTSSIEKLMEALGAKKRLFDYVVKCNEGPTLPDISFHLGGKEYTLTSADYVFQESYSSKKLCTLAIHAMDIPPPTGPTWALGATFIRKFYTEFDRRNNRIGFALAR

[2] = target: T2, Renin (Macaca fascicularis, UniProt Q6DLS0); assay: Inhibition of cynomolgus monkey plasma renin assessed as angiotensin 1 level after 60 mins by competitive radioimmunoassay
T2 sequence (Q6DLS0 whole entry): T1 sequence (whole entry)

[3] = target: T3, Renin (Homo sapiens, UniProt P00797); assay: Inhibition of trypsin-activated human recombinant renin using (Arg-Glu(EDANS)-Ile-His-Pro-Phe-His-Leu-Val-Ile-His-Thr-Lys(DABCYL)-Arg) as substrate incubated for 10 mins prior to substrate addition measured after 90 mins by fluorescence assay
T3 sequence (P00797 whole entry): T1 sequence (whole entry) with A68T, L214I, A235S

[4] = test system: Cynomolgus monkey; assay: Antihypertensive activity in po dosed cynomolgus monkey assessed as reduction in mean arterial pressure administered 3 days post furosemide-challenge measured after 24 hrs; format: functional, organism-based; conditions: Macaca fascicularis; Artery
[5] = target: T4, Renin (Homo sapiens) (UniProt P00797); assay: Ratio of compound IC50 to Aliskiren hemifumarate IC50 for human plasma renin
T4 sequence (whole entry): T1 sequence (whole entry) with A68T, L214I, A235S

[6] = species on record: Cavia porcellus; assay: Cardiotoxicity in guinea pig assessed as maximum dV/dt in right ventricular papillary muscle at 30 uM by glass microelectrode method relative to baseline; format: toxicity, Muscle tissue
[7] = species on record: Cavia porcellus; assay: Cardiotoxicity in guinea pig assessed as action potential duration at 90% repolarization of right ventricular papillary muscle at 30 uM by glass microelectrode method relative to baseline; format: toxicity, Muscle tissue
[8] = test system: Rattus norvegicus; assay: Antihypertensive activity in double transgenic rat assessed as reduction in mean arterial pressure at 30 mg/kg, po after 24 hrs; format: functional, organism-based; parameters: dose 30 mg/kg; conditions: Artery
[9] = Half life in cynomolgus monkey at 10 mg/kg, po and 1 mg/kg, iv; format: ADME, organism-based, Macaca fascicularis; conditions: in vivo
[10] = Volume of distribution at steady state in cynomolgus monkey at 10 mg/kg, po and 1 mg/kg, iv; format: ADME, organism-based, Macaca fascicularis; conditions: in vivo, read-out: Vdss
[11] = Cmax in cynomolgus monkey at 10 mg/kg, po and 1 mg/kg, iv; format: ADME, organism-based, Macaca fascicularis; conditions: in vivo
[12] = Clearance in cynomolgus monkey at 10 mg/kg, and 1 mg/kg, iv; format: ADME, organism-based, Macaca fascicularis; conditions: in vivo
[13] = Oral bioavailability in cynomolgus monkey at 10 mg/kg; format: ADME, organism-based, Macaca fascicularis; conditions: in vivo
[14] = Half life in Sprague-Dawley rat at 30 mg/kg, po and 1 mg/kg, iv; format: ADME, organism-based; conditions: in vivo
[15] = Volume of distribution at steady state in Sprague-Dawley rat at 30 mg/kg, po and 1 mg/kg, iv; format: ADME, organism-based; conditions: in vivo, read-out: Vdss
[16] = Clearance in Sprague-Dawley rat at 30 mg/kg, po and 1 mg/kg, iv; format: ADME, organism-based; conditions: in vivo
[17] = AUC (0 to 24 hrs) in Sprague-Dawley rat at 30 mg/kg, po; format: ADME, organism-based; parameters: time < 24 hr, dose 30 mg/kg, route oral; conditions: plasma
[18] = Oral bioavailability in Sprague-Dawley rat at 30 mg/kg; format: ADME, organism-based; conditions: in vivo
[19] = Cmax in Sprague-Dawley rat at 30 mg/kg, po and 1 mg/kg, iv; format: ADME, organism-based; conditions: in vivo
[20] = test system: Salmonella typhimurium; assay: Genotoxicity in Salmonella typhimurium TA100 by Ames assay; format: toxicity, organism-based; conditions: salmonella enterica subsp. enterica serovar typhimurium
[21] = test system: Salmonella typhimurium; assay: Genotoxicity in Salmonella typhimurium TA98 by Ames assay; format: toxicity, organism-based; conditions: salmonella enterica subsp. enterica serovar typhimurium
[22] = Plasma protein binding in rat by ultracentrifugation method; format: ADME, cell-free; conditions: read-out: PPB (converted)
[23] = Plasma protein binding in monkey by ultracentrifugation method; format: ADME, cell-free, Macaca mulatta; conditions: rhesus monkey, read-out: PPB (converted)
[24] = Plasma protein binding in human by ultracentrifugation method; format: ADME, cell-free; conditions: read-out: PPB (converted)
[25] = Metabolic stability in rat liver microsomes assessed as compound remaining after 30 mins; format: ADME, Microsome; conditions: read-out: Stability
[26] = Metabolic stability in monkey liver microsomes assessed as compound remaining after 30 mins; format: ADME, Macaca mulatta, Microsome; conditions: rhesus monkey, read-out: Stability
[27] = Metabolic stability in human liver microsomes assessed as compound remaining after 30 mins; format: ADME, Microsome; conditions: read-out: Stability
[28] = Lipophilicity, log D of the compound at pH 7.4; format: physicochemical; conditions: buffer
[29] = target: T3, Renin; assay: Inhibition of human plasma renin by competitive radioimmunoassay
[30] = target: hERG (KCNH2) (Homo sapiens, UniProt Q12809); assay: Inhibition of human ERG channel at 30 uM by patch clamp technique
Sequence of hERG (KCNH2) (Q12809 whole entry): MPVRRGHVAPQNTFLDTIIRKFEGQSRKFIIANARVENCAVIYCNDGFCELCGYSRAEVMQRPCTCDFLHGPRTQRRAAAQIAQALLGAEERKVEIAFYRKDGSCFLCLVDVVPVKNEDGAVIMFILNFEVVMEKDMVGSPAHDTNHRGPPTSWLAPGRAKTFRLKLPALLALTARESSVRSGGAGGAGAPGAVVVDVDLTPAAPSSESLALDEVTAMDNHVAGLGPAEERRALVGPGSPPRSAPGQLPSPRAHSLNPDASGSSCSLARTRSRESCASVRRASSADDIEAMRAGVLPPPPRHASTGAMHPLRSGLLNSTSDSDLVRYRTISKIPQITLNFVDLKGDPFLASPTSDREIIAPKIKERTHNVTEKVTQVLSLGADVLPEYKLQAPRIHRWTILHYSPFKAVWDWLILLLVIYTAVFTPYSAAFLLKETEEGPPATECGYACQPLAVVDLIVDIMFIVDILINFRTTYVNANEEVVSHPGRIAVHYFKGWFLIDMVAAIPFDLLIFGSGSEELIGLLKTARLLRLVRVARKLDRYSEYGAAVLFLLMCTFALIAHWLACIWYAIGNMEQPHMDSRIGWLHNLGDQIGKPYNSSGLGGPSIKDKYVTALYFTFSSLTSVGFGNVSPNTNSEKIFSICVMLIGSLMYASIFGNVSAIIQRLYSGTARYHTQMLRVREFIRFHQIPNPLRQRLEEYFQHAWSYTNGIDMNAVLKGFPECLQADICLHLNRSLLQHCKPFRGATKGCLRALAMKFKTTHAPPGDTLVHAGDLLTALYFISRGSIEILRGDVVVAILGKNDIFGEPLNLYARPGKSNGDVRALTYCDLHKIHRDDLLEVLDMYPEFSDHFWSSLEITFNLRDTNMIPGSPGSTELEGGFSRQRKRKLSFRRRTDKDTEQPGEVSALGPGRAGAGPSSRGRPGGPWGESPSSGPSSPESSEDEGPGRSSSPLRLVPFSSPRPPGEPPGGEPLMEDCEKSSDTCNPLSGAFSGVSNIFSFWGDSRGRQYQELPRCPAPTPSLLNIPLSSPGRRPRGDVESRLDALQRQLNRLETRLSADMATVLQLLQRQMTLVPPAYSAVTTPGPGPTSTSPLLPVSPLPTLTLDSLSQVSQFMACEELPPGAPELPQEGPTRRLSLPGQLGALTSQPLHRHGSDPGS

[31] = target: CYP2D6 (Homo sapiens, UniProt P10635); assay: Inhibition of CYP2D6 (unknown origin) at 10 uM; format: ADME
Sequence of CYP2D6 (P10635 whole entry): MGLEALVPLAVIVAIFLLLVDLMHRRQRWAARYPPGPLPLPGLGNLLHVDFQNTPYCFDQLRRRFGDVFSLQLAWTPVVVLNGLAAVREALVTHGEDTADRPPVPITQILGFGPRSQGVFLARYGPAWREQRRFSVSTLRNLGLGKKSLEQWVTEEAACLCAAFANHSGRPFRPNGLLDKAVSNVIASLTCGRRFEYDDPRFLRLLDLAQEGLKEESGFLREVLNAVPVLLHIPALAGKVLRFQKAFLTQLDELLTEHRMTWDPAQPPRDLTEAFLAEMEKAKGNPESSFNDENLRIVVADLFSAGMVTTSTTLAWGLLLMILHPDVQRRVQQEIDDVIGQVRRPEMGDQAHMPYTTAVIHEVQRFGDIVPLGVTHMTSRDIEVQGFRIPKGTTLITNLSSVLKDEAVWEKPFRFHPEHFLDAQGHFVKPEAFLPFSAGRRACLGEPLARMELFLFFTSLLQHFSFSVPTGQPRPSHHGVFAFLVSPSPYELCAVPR

[32] = target: CYP3A4 (Homo sapiens, UniProt P08684); assay: Inhibition of CYP3A4 (unknown origin) at 10 uM; format: ADME
Sequence of CYP3A4 (P08684 whole entry): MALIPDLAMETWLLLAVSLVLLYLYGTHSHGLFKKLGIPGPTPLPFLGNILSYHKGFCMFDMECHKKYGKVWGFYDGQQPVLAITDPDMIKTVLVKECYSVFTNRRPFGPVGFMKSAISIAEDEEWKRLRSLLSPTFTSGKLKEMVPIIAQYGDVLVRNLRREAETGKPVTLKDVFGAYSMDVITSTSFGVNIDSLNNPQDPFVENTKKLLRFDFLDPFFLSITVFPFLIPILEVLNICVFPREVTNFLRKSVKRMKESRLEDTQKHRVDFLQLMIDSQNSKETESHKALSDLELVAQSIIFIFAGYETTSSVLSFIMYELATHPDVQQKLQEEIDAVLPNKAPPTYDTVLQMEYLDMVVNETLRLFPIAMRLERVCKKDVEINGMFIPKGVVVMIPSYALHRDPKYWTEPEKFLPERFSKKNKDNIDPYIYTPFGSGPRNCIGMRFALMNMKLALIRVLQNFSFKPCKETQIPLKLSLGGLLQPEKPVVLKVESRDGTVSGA

[33] = test system: Cynomolgus monkey; assay: Antihypertensive activity in cynomolgus monkey assessed as reduction in mean arterial pressure at 10 mg/kg, po measured for 24 hrs post dose; format: functional, organism-based; parameters: dose 10 mg/kg; conditions: Macaca fascicularis, Artery
[34] = test system: Rattus norvegicus; assay: Antihypertensive activity in double transgenic rat assessed as reduction in mean arterial pressure at 30 mg/kg, po measured for 48 hrs post dose; format: functional, organism-based; parameters: dose 30 mg/kg; conditions: Artery
[35] = AUC (0 to 24 hrs) in cynomolgus monkey at 10 mg/kg, po; format: ADME, organism-based, Macaca fascicularis; parameters: time < 24 hr, dose 10 mg/kg, route oral; conditions: plasma
[36] = AUC (0 to 24 hrs) in cynomolgus monkey at 3 mg/kg, po; format: ADME, organism-based, Macaca fascicularis; parameters: time < 24 hr, dose 3 mg/kg, route oral; conditions: plasma
[37] = AUC (0 to 24 hrs) in Sprague-Dawley rat at 10 mg/kg, po; format: ADME, organism-based; parameters: time < 24 hr, dose 10 mg/kg, route oral; conditions: plasma

SMILES: CC(C)CC(CC(C)C)NC(=O)[C@@H]1CNC[C@H](N2CC(=O)N(c3ccccc3Cl)CC2(C)C)C1
- Ratio IC50 [1]: 2.8

SMILES: Cc1ccccc1N1CC(C)(C)N([C@H]2CNC[C@@H](C(=O)N[C@H](CC(C)C)c3ccc(F)cn3)C2)CC1=O.O=C(O)/C=C/C(=O)O
- IC50 [2]: 7 nM
- IC50 [3]: 1.6 nM
- Activity [4]: Dose-dependent effect
- Ratio IC50 [5]: 1.2
- Ratio IC50 [1]: 0.9
- Activity [6]: -11.6%
- Activity [7]: -1%
- Activity [8]: Active
- half-life [9]: 7.9 h
- Vd [10]: 5.4 L/kg
- Cmax [11]: 604 ng/mL
- clearance [12]: 9.5 mL/min/kg
- bioavailability [13]: 25%
- half-life [14]: 5.4 h
- Vd [15]: 11 L/kg
- clearance [16]: 80 mL/min/kg
- AUC(0-t) at 24 h [17]: 1100 ng·h/mL
- bioavailability [18]: 20%
- Cmax [19]: 204 ng/mL
- Activity [20]: Non-toxic
- Activity [21]: Non-toxic
- fraction unbound [22]: 0.37
- fraction unbound [23]: 0.45
- fraction unbound [24]: 0.62
- remaining at 0.5 h [25]: 89%
- remaining at 0.5 h [26]: 84%
- remaining at 0.5 h [27]: 100%
- logD [28]: 2
- IC50 [29]: 3.6 nM
- inhibition at 30 µM [30]: 5.2%
- inhibition at 10 µM [31]: 1%
- inhibition at 10 µM [32]: 30%
- AUC [33]: -267 mmHg.hr
- AUC [34]: -581 mmHg.hr
- AUC(0-t) at 24 h [35]: 3190 ng·h/mL

SMILES: CC(C)C[C@@H](NC(=O)[C@@H]1CNC[C@H](N2CC(=O)N(c3ccccc3Cl)CC2(C)C)C1)c1ccc(F)cn1.O=C(O)/C=C/C(=O)O
- IC50 [2]: 9.7 nM
- IC50 [3]: 1 nM
- Ratio IC50 [1]: 2.1
- inhibition at 30 µM [30]: 27%
- inhibition at 10 µM [31]: 8.3%
- inhibition at 10 µM [32]: 22%
- AUC [33]: -194 mmHg.hr
- AUC [34]: -535 mmHg.hr
- AUC(0-t) at 24 h [35]: 2580 ng·h/mL

SMILES: Cc1ccc(F)cc1N1CC(C)(C)N([C@H]2CNC[C@@H](C(=O)N[C@H](CC(C)C)c3ccc(F)cn3)C2)CC1=O
- IC50 [2]: 16 nM
- IC50 [3]: 1.3 nM
- Ratio IC50 [1]: 2.1
- inhibition at 30 µM [30]: 40%
- inhibition at 10 µM [31]: 11%
- inhibition at 10 µM [32]: 44%
- AUC [34]: -606 mmHg.hr

SMILES: CC[C@@H](NC(=O)[C@@H]1CNC[C@H](N2CC(=O)N(c3ccccc3Cl)CC2(C)C)C1)c1ccccc1.O=C(O)/C=C/C(=O)O
- Ratio IC50 [1]: 1.8
- AUC(0-t) at 24 h [36]: 730 ng·h/mL
- AUC(0-t) at 24 h [37]: 1500 ng·h/mL

SMILES: CC[C@@H](NC(=O)[C@@H]1CNC[C@H](N2CC(=O)N(c3ccccc3Cl)CC2(C)C)C1)c1ccccc1F
- IC50 [2]: 11 nM
- IC50 [3]: 3.3 nM
- Ratio IC50 [1]: 2.3

SMILES: CCC[C@@H](NC(=O)[C@@H]1CNC[C@H](N2CC(=O)N(c3ccccc3Cl)CC2(C)C)C1)c1ccccc1
- Ratio IC50 [1]: 2

SMILES: CC(C)C[C@@H](NC(=O)[C@@H]1CNC[C@H](N2CC(=O)N(c3ccccc3Cl)CC2(C)C)C1)c1cncc(F)c1
- IC50 [2]: 6.9 nM
- IC50 [3]: 1.7 nM
- Ratio IC50 [1]: 0.8

SMILES: CC(C)C[C@@H](NC(=O)[C@@H]1CNC[C@H](N2CC(=O)N(c3ccccc3Cl)CC2(C)C)C1)c1ncco1
- IC50 [2]: 8.3 nM
- IC50 [3]: 1.9 nM
- Ratio IC50 [1]: 1.4

SMILES: CC(C)C[C@@H](NC(=O)[C@@H]1CNC[C@H](N2CC(=O)N(c3ccccc3Cl)CC2(C)C)C1)c1ccccc1
- Ratio IC50 [1]: 1
